Residues, ends and D or L forms follow the SMILES beside them.
Experiments:
[1] = system: 14 expertly trained panelists; experiment: Sensory studies of sweetness with acidified water samples; type: in vivo, human; conditions: for Sweetness (score): acidified water, Aspartame 400 ppm, scale 0 to 15, 15 being the sweetest
Method: Sensory studies with two sets of acidified water samples were performed and are described below, where Set 1: HFCS-55 11.7%; Aspartame 400 ppm, and rebaudioside M 400 ppm; and Set 2: Aspartame 400 ppm, Rebaudioside M 400 ppm and Rebaudioside D 400 ppm. The sensory studies were conducted by 14 expertly trained panelists with two evaluations performed for each set. The scale for scoring was 0 to 15, with 15 being the sweetest. The letters shown in Table 2 and Table 3, along with the numerical sweetness values will be understood by those skilled in the art to designate whether or not a statistically significant difference in taste was found. Thus, it can be seen in Table 1 that for Set 1 a statistically significant difference was found between the three sweeteners. It can be seen in Table 2 that for Set 2 a statistically significant difference in sweetness was found for rebaudioside M versus the other two sweeteners. More generally, it can be seen that for both Set 1 and Set 2, rebaudioside M had noticeably higher sweetness values.

[2] = Solubility in cola syrup preparation; type: physicochemical; conditions: cola syrup for 1-plus-5 throw
Method: Samples of finished ready-to-drink cola beverage were prepared for each of three different formulations. The formulations were identical except that syrup variant 1 used rebaudioside A as the sweetener, syrup variant 2 used rebaudioside D as the sweetener, and syrup variant 3 used rebaudioside M as the sweetener in accordance with one aspect of the invention of the present disclosure. For the ready-to-drink cola beverage samples of formulation variant 1 and formulation variant 3, 2.0 liters of syrup were prepared suitable for use in a 1-plus-5 throw with carbonated water to make the corresponding ready-to-drink cola beverage samples. To prepare variant 1 (comprising rebaudioside A as the sweetener) and variant 3 (comprising rebaudioside M as the sweetener), the ingredients listed in Table 4, below, were added (in the sequence listed) to approximately 1.0-1.5 liter purified water with stirring. Purified water was then added until the syrup was 2 liters in volume. Then 50 mL portions of the syrup were added respectively to 250 mL portions of carbonated water, i.e., a “1-plus-5 throw” to obtain samples of finished ready-to-drink cola beverage corresponding to each of the two syrup variants. […] Specifically, the unsweetened cola beverage samples were made first in sample bottles. Then, to each bottle 400 ppm of Reb D was carefully added in. […]

[3] = Differential scanning calorimetry (FIG. 4); type: physicochemical; conditions: second DSC run showing little change
From the text: FIG. 4 is a differential scanning calorimetry graph for rebaudioside M.

[4] = Taste comparison of rebaudioside M with other potent sweeteners in beverages; type: in vivo
[5] = Table 2, Rebaudioside D 400 ppm, Rebaudioside M 400 ppm
[6] = Table 3, HFCS-55 11.7%, rebaudioside M 400 ppm

| Solubility [2] | Thermo-stability [3] | SMILES | Sweetness (score) [1, 5] | Sweetness (score) [1, 6] | Sweetness relative to other sweeteners ([1]; conclusion from Table 2 and Table 3, 400 ppm in acidified water) | Sweetness intensity relative to Reb A ([4]; in vivo) | Bitterness relative to the same concentration of rebaudioside A ([4]; otherwise identical acidic aqueous carbonated beverages) |
| --- | --- | --- | --- | --- | --- | --- | --- |
| – | – | COC(=O)[C@H](Cc1ccccc1)NC(=O)[C@@H](N)CC(=O)O [Aspartame, reference compound] (H-Asp-Phe-OMe) | 6.39 | 6.30 | – | – | – |
| poor solubility | – | C=C1C[C@@]23CC[C@H]4[C@@](C)(CCC[C@@]4(C)C(=O)O[C@@H]4O[C@H](CO)[C@@H](O)[C@H](O)[C@H]4O[C@@H]4O[C@H](CO)[C@@H](O)[C@H](O)[C@H]4O)[C@@H]2CC[C@]1(O[C@@H]1O[C@H](CO)[C@@H](O)[C@H](O[C@@H]2O[C@H](CO)[C@@H](O)[C@H](O)[C@H]2O)[C@H]1O[C@@H]1O[C@H](CO)[C@@H](O)[C@H](O)[C@H]1O)C3 [Rebaudioside D, rebaudioside D, reference compound] | 6.97 | – | – | – | – |
| – | good thermo-stability | C=C1C[C@@]23CC[C@H]4[C@@](C)(CCC[C@@]4(C)C(=O)O[C@@H]4O[C@H](CO)[C@@H](O)[C@H](O[C@@H]5O[C@H](CO)[C@@H](O)[C@H](O)[C@H]5O)[C@H]4O[C@@H]4O[C@H](CO)[C@@H](O)[C@H](O)[C@H]4O)[C@@H]2CC[C@]1(O[C@@H]1O[C@H](CO)[C@@H](O)[C@H](O[C@@H]2O[C@H](CO)[C@@H](O)[C@H](O)[C@H]2O)[C@H]1O[C@@H]1O[C@H](CO)[C@@H](O)[C@H](O)[C@H]1O)C3 [Rebaudioside M, rebaudioside M] | 7.58 | 8.00 | significantly sweeter than aspartame and rebaudioside D | significantly higher than Reb A | significantly lower bitterness |
